EP2529738A1, “Substituted terpyridines” (Max-Delbrück-Centrum für Molekulare Medizin, priority 2011, dated 2012)
“Also recorded” adds a separate entry of the source.

Legend:
AKAP18α-PKA interaction = conditions: inhibition of AKAP18α-PKA interaction; cited from earlier work
full length RIIα-His = biological target: T1, full length RIIα-His (Homo sapiens, UniProt P13861); experiment: saturation transfer difference (STD) NMR binding experiment; conditions: result in words; reduction in ligand peak intensity indicates binding
T1 construct: 20 µM unlabelled PKA-RIIα FL(1-404)-His; His (C)
T1 sequence (P13861 whole entry): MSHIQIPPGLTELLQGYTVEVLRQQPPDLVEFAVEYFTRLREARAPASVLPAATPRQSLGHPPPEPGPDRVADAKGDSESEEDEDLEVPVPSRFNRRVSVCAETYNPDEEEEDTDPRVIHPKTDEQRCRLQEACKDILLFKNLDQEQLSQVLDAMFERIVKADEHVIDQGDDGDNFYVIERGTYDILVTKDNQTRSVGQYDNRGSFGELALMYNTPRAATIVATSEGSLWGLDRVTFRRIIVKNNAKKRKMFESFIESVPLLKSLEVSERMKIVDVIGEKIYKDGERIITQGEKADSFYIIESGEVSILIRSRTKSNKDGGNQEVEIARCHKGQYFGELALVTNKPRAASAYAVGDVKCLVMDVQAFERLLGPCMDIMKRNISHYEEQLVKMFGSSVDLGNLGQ
Procedure: (§1) The compounds were tested first in a saturation transfer difference (STD) NMR experiment. For the STD experiments with the compounds depicted in table 1 full length RIIα-His was used as the target protein. Prior to measurements of STD spectra in the presence of the target protein, the same set of experiments was performed in the absence of protein in order to confirm that no saturation of the compound signals takes place when irradiating the sample at the frequency chosen for protein irradiation. […] Table 2: Qualitative results from STD and HSQC experiments with the indicated compounds.
Saturation transfer difference nuclear magnetic resonance (STD-NMR)
(§2) NMR samples for STD-NMR contained 0.1 mM of the indicated compound in NMR buffer, with a final concentration of d6-DMSO of 2%. Samples were measured in presence or absence of 20 µM unlabelled PKA-RIIα FL(1-404)-His.
STD-NMR experiments were recorded with the carrier frequency set to -1000 (around -1 ppm) for on-resonance irradiation and about 330 ppm for off-resonance irradiation. A train of 50 Gaussian-shaped pulses at 40 ms was applied, each separated by a 1-ms delay, for a total duration of 2.05 s, to achieve selective protein saturation. Spectra acquisition was done with 32 scans in absence of protein and 256 scans in presence of protein and a relaxation delay of 1.3 s. A T1ρ spin lock pulse of 40 ms was used to suppress the background protein signals. The STD spectrum was obtained from the internal subtraction of the on-resonance from the off-resonance data by phase cycling.

[1] = behaviour of the compound in the STD-NMR sample solution; format: physicochemical; conditions: 0.1 mM in NMR buffer, 2% d6-DMSO; no ligand peaks measurable by NMR
Procedure: as §1
In Fig. 4, the STD-spectra of a binding compound (25b) and a non-binding compound (14b) are depicted.
as §2

D/D domain of RIIα = biological target: T2, D/D domain of RIIα (Homo sapiens, UniProt P13861); experiment: 1H,15N-HSQC NMR binding experiment with 15N-labeled D/D domain; conditions: result in words; 100 µM 15N-labeled D/D domain, 300 µM compound
T2 construct: ^15N-isotopically enriched RIIα(1-44)
T2 sequence (P13861 1-44): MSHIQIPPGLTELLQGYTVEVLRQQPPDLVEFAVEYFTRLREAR
Procedure: For an estimate of binding specificity, the compounds were tested in a second NMR assay for binding to the D/D domain of RIIα. The D/D domain contains the AKAP binding site of RIIα. Therefore, suitable small molecule mimetics of the RIIBD of AKAP18 must bind to this domain of the full length protein. In other words, binding to the D/D domain is a good initial test for an AKAP-like, specific interaction of the compounds with RIIα.
For this purpose HSQC-experiments with ^15N-labeled D/D domain were employed with the compounds depicted in table 3. The results obtained correspond to the results from the STD experiments. […] In Fig. 5, HSQC-spectra of the D/D domain in presence and absence of 25b are depicted.
^1H,^15N-Heteronuclear Single Quantum Coherence (HSQC)-NMR)
^1H,^15N-HSQC-NMR experiments were carried on a 600 MHz spectrometer at 300 K.
^1H,^15N-correlation experiments using with ^15N-isotopically enriched RIIα(1-44) were recorded using a standard HSQC pulse program or an HMQC-SOFAST pulse program, both employing WATERGATE for solvent suppression.
The protein concentration employed for binding studies was in the order of 0.1 mM. The concentration of compounds was 0.3 mM for compounds and 0.8 mM for peptides, respectively. Experiments were performed in NMR buffer containing 5% d6-DMSO. Each step was followed by recording of a new spectrum. The acquisition time in the direct dimension was restricted to 150 ms. A total of 256 increments was recorded in the indirect dimension. [formula]

binding of the compounds to RIIα in STD experiments (full length RIIα-His) | change in chemical shift of D/D domain signals upon addition of compound (D/D domain of RIIα) | Molecule | IC50 (AKAP18α-PKA interaction) | solubility in the STD-NMR sample [1]
reduction in ligand peak intensity |  | Cc1c(-c2nc(CCCN(Cc3ccccc3)Cc3ccccc3)cc3c2CCC3)cnc(-c2cc(CCC(=O)O)cnc2C(N)=O)c1C [25a, 3-[6-carbamoyl-5-[5-[3-[3-(dibenzylamino)propyl]-6,7-dihydro-5H-cyclopenta[c]pyridin-1-yl]-3,4-dimethyl-2-pyridyl]-3-pyridyl]propanoic acid] |  | 
No binding was detected | no perturbation of chemical shifts | CCOC(=O)CCc1cnc(C#N)c(-c2ncccc2C)c1 [compound 27] |  | 
No binding was detected | no perturbation of chemical shifts | Cc1cc(-c2nc(CCCNCc3ccccc3)cc3c2CCC3)cnc1-c1cc(CCC(=O)O)cnc1C(N)=O [14c] |  | 

Continued, molecule first:

Molecule | binding of the compounds to RIIα in STD experiments (full length RIIα-His) | change in chemical shift of D/D domain signals upon addition of compound (D/D domain of RIIα) | IC50 (AKAP18α-PKA interaction) | solubility in the STD-NMR sample [1]
PEDAELVRLSKRLVENAVEKAVQQY (SEQ ID 01) [AKAP18δ-L314E] |  |  | low nanomolar range | 
CCOC(=O)CCc1cnc(C#N)c(-c2ncc(-c3nc(CCCN(Cc4ccccc4)Cc4ccccc4)cc4c3CCC4)c(C)c2C)c1 [22a, Ethyl 3-(6-cyano-5-(5-(3-(3-(dibenzylamino)propyl)-6,7-dihydro-5H-cyclopenta[c]pyridin-1-yl)-3,4-dimethylpyridin-2-yl)pyridine-3-yl)propanoate] |  |  |  | precipitated from solution; also recorded: crystallized from the solution
Cc1cc(-c2nc(CCCN)cc3c2CCC3)cnc1-c1cc(CCC(=O)O)cnc1C(N)=O [14b] | No binding was detected | no perturbation of chemical shifts |  | 
Cc1cc(-c2nc(CCCN(Cc3ccccc3)Cc3ccccc3)cc3c2CCC3)cnc1-c1cc(CCC(=O)O)cnc1C(N)=O [25b, 3-[6-carbamoyl-5-[5-[3-[3-(dibenzylamino)propyl]-6,7-dihydro-5H-cyclopenta[c]pyridin-1-yl]-3-methyl-2-pyridyl]-3-pyridyl]propanoic acid] | reduction in ligand peak intensity | change in chemical shift of D/D domain signals was observed |  | 
